# Laboratory results as given in USRE40558E1, “Therapeutic uses of di-aryl acid derivatives” (Sanofi-Aventis Deutschland GmbH, priority 1999, dated 2008).
row,melting point [°C],Compound
1,109 to 111,"Cc1cc(OCc2ccccc2)cc(OCCCc2ccccc2)c1C(=O)O [Example 15, 4-Benzyloxy-2-methyl-6-(3-phenyl-propoxy)-benzoic Acid]"
2,127 to 128,"Cc1cc(OCc2ccccc2)cc(OCC2CCCCC2)c1C(=O)O [Example 15a, 4-Benzyloxy-2-cyclohexylmethoxy-6-methyl-benzoic Acid]"
3,83 to 85,"Cc1cc(OCc2ccccc2)cc(OCCCC(C)C)c1C(=O)O [Example 15b, 4-Benzyloxy-2-methyl-6-(4-methyl-pentyloxy)-benzoic Acid]"
